Measured values: article PMC11116414, “Impact of secretin receptor homo-dimerization on natural ligand binding” (Nature Communications, 2024)
No end group written: not given here.

System: cysteine-containing SecR(G264A,I268A) constructs
Assay: Cysteine trapping with SecR(G264A,I268A) cysteine constructs, intact COS-1 cells
Format: binding, human
Details: for Intraloop labeling / Overall labeling: mean ± S.E.M.
Method: In short, 15 µg of each peptide were incubated with 1 mCi of Na^125I for 15 s in borate buffer (pH 9.0) using solid-state N-chlorobenzene sulfonamide (iodination beads), and radioactive peptide products were separated and purified using reversed-phase HPLC, to yield a mono-iodinated peak with a specific radioactivity of 2000 Ci/mmol.
Modified secretin receptor constructs were prepared by mutagenesis of human SecR(G264A,I268A) by introducing cysteine residues to replace each natural residue in the N-terminal stalk region, (extracellular loop 1) ECL1, ECL2, and ECL3 regions of the receptor[21]. Mutagenesis was performed using the QuikChange site-directed mutagenesis kit from Stratagene (La Jolla, CA), with the products verified by direct DNA sequencing.
Cysteine trapping is a technique in which cysteine residues incorporated into distinct positions within a peptide ligand and within its receptor are allowed to form disulfide bonds when two free cysteines are in proximity to each other with necessary distance and geometry. As noted above, this was performed with secretin peptides incorporating cysteines in positions 2, 5, 6 and 7[20],[21], and with a series of SecR mutants incorporating cysteines in all extracellular domains (75 distinct constructs in a TM4 mutant non-dimerizing SecR background). COS-1 cells were grown to approximate 85% confluence in 24-well tissue culture plates, and transfected with cysteine mutant receptor constructs using the PEI method. Assays were started by washing the cells with DMEM containing 5% Fetal Clone II before being incubated with 200 μl radiolabeled cysteine-containing probes (approximately 100,000 cpm per well) for 1.5 h at room temperature. The assays were terminated by washing the cells with ice-cold PBS, pH 7.4, and mixing with 60 µl SDS Laemmli sample buffer not containing dithiothreitol (DTT). Lysates were run on 10% SDS-polyacrylamide gels. Gels were then dried, and bands of interest were visualized by autoradiography, and specific bands were identified, and intensities quantified using ImageJ. Sites having labeling above background were determined using one-way ANOVA with Dunnett’s post-test, with P < 0.001 considered to be significant. The apparent molecular weights of the receptor bands were determined by interpolation with the mobility of the appropriate ProSieve protein markers.

[1] = A292C, ECL2, n = 3-5, Cys5 significant (P < 0.0001)
[2] = A365C, ECL3, n = 3-5, Cys5 significant (P < 0.0001)
[3] = D364C, ECL3, n = 3-5, Cys5 significant (P < 0.0001)
[4] = F279C, ECL2, % of highest labeling within loop, n = 4 (Cys2), 5 (Cys5, Cys6), 3 (Cys7)
[5] = F279C, ECL2, % of highest-labeled residue across all constructs, n = 4 (Cys2), 5 (Cys5, Cys6), 3 (Cys7)
[6] = I288C, ECL2, n = 3-5, Cys5 and Cys7 significant (P < 0.0001)
[7] = L374C, ECL3, n = 3-5, Cys5, Cys6, Cys7 significant (P < 0.001)
[8] = W295C, ECL2, n = 3-5, Cys2, Cys5, Cys7 significant (P < 0.0001)
[9] = W296C, ECL2, n = 3-5, Cys6 significant (P = 0.0003)

Cys^2-[Tyr^10]secretin(1-27) (HCDGTFTSEYSRLREGARLQRLLQGLV; not fully specified; ends and bridges not checked; also: radioiodinated; UniProt P09683 28-54, looked up, variant S2C L10Y) [Cys^2-Sec, cysteine-containing secretin agonist probe, radioiodinated for cysteine trapping]
16.6±15.3 percentage: Intraloop labeling (L370C, ECL3, n = 3-5)
< 1 percentage: Intraloop labeling (A290C, ECL2, n = 3-5) | Overall labeling (A290C, ECL2, n = 3-5) | Intraloop labeling (A292C, ECL2, n = 3-5) | Overall labeling [1] | Intraloop labeling (D282C, ECL2, n = 3-5) | Overall labeling (D282C, ECL2, n = 3-5) | Intraloop labeling (D287C, ECL2, n = 3-5) | Overall labeling (D287C, ECL2, n = 3-5) | Intraloop labeling (E281C, ECL2, n = 3-5) | Overall labeling (E281C, ECL2, n = 3-5) | Overall labeling (E363C, ECL3, n = 3-5) | Intraloop labeling (E367C, ECL3, n = 3-5) | Overall labeling (E367C, ECL3, n = 3-5) | Intraloop labeling [4] | Overall labeling [5] | Intraloop labeling (G284C, ECL2, n = 3-5) | Overall labeling (G284C, ECL2, n = 3-5) | Intraloop labeling (I288C, ECL2, n = 3-5) | Overall labeling [6] | Intraloop labeling (I294C, ECL2, n = 3-5) | Overall labeling (I294C, ECL2, n = 3-5) | Intraloop labeling (I368C, ECL3, n = 3-5) | Overall labeling (I368C, ECL3, n = 3-5) | Intraloop labeling (L280C, ECL2, n = 3-5) | Overall labeling (L280C, ECL2, n = 3-5) | Intraloop labeling (N289C, ECL2, n = 3-5) | Overall labeling (N289C, ECL2, n = 3-5) | Intraloop labeling (N291C, ECL2, n = 3-5) | Overall labeling (N291C, ECL2, n = 3-5) | Intraloop labeling (Q369C, ECL3, n = 3-5) | Overall labeling (Q369C, ECL3, n = 3-5) | Intraloop labeling (S293C, ECL2, n = 3-5) | Overall labeling (S293C, ECL2, n = 3-5) | Intraloop labeling (S361C, ECL3, n = 3-5) | Overall labeling (S361C, ECL3, n = 3-5) | Intraloop labeling (V283C, ECL2, n = 3-5) | Overall labeling (V283C, ECL2, n = 3-5) | Intraloop labeling (W286C, ECL2, n = 3-5) | Overall labeling (W286C, ECL2, n = 3-5) | Intraloop labeling (W296C, ECL2, n = 3-5) | Overall labeling [9]
21.7±19.6 percentage: Overall labeling [2]
22.1±19.0 percentage: Intraloop labeling (D364C, ECL3, n = 3-5)
22.9±8.3 percentage: Intraloop labeling (F360C, ECL3, n = 3-5)
27.2±18.7 percentage: Overall labeling (E373C, ECL3, n = 3-5)
14.7±12.5 percentage: Intraloop labeling (F371C, ECL3, n = 3-5)
33.7±20.5 percentage: Intraloop labeling (F372C, ECL3, n = 3-5)
93.0±7.0 percentage: Overall labeling [8]
100±0 percentage: Intraloop labeling (W295C, ECL2, n = 3-5)
36.3±17.6 percentage: Intraloop labeling (F358C, ECL3, n = 3-5)
19.4±6.5 percentage: Overall labeling (F360C, ECL3, n = 3-5)
23.5±15.3 percentage: Overall labeling (F372C, ECL3, n = 3-5)
21.3±19.1 percentage: Overall labeling [3]
40.3±24.4 percentage: Intraloop labeling (L374C, ECL3, n = 3-5)
14.5±12.5 percentage: Overall labeling (F371C, ECL3, n = 3-5)
29.0±11.6 percentage: Overall labeling (F358C, ECL3, n = 3-5)
29.1±19.6 percentage: Overall labeling [7]
22.5±19.5 percentage: Intraloop labeling (A365C, ECL3, n = 3-5)
37.0±22.4 percentage: Intraloop labeling (E373C, ECL3, n = 3-5)

Cys^5-[Tyr^10]secretin(1-27) (HSDGCFTSEYSRLREGARLQRLLQGLV; not fully specified; ends and bridges not checked; also: radioiodinated; UniProt P09683 28-54, looked up, variant T5C L10Y) [Cys^5-Sec, cysteine-containing secretin agonist probe, radioiodinated for cysteine trapping]
21.6±13.5 percentage: Overall labeling (Q369C, ECL3, n = 3-5)
69.8±7.5 percentage: Overall labeling [7]
59.9±11.0 percentage: Intraloop labeling (M366C, ECL3, n = 3-5)
90.4±5.8 percentage: Intraloop labeling (A365C, ECL3, n = 3-5)
69.2±12.2 percentage: Overall labeling [6]
77.3±7.7 percentage: Intraloop labeling (L374C, ECL3, n = 3-5)
93.4±2.8 percentage: Intraloop labeling (A292C, ECL2, n = 3-5)
20.3±19.9 percentage: Intraloop labeling (A290C, ECL2, n = 3-5) | Intraloop labeling (P362C, ECL3, n = 3-5)
88.5±4.0 percentage: Overall labeling [1]
labeled ECL3 residues: cysteine trapping in ECL3, in words (WT (earlier work) and non-dimerizing SecR)
21.6±13.4 percentage: Intraloop labeling (Q369C, ECL3, n = 3-5)
71.1±10.8 percentage: Intraloop labeling (I288C, ECL2, n = 3-5)
82.4±7.9 percentage: Overall labeling [2]
62.2±12.3 percentage: Intraloop labeling (D364C, ECL3, n = 3-5)
78.3±17.3 percentage: Overall labeling [8]
55.3±12.0 percentage: Overall labeling (M366C, ECL3, n = 3-5, Cys5 significant (P < 0.0001))
< 1 percentage: Intraloop labeling (D282C, ECL2, n = 3-5) | Overall labeling (D282C, ECL2, n = 3-5) | Intraloop labeling (D287C, ECL2, n = 3-5) | Overall labeling (D287C, ECL2, n = 3-5) | Intraloop labeling (E281C, ECL2, n = 3-5) | Overall labeling (E281C, ECL2, n = 3-5) | Intraloop labeling (E363C, ECL3, n = 3-5) | Overall labeling (E363C, ECL3, n = 3-5) | Intraloop labeling (E367C, ECL3, n = 3-5) | Overall labeling (E367C, ECL3, n = 3-5) | Intraloop labeling (E373C, ECL3, n = 3-5) | Overall labeling (E373C, ECL3, n = 3-5) | Intraloop labeling [4] | Overall labeling [5] | Intraloop labeling (F371C, ECL3, n = 3-5) | Overall labeling (F371C, ECL3, n = 3-5) | Intraloop labeling (F372C, ECL3, n = 3-5) | Overall labeling (F372C, ECL3, n = 3-5) | Intraloop labeling (G284C, ECL2, n = 3-5) | Overall labeling (G284C, ECL2, n = 3-5) | Intraloop labeling (I294C, ECL2, n = 3-5) | Overall labeling (I294C, ECL2, n = 3-5) | Intraloop labeling (I297C, ECL2, n = 3-5) | Overall labeling (I297C, ECL2, n = 3-5) | Intraloop labeling (I368C, ECL3, n = 3-5) | Overall labeling (I368C, ECL3, n = 3-5) | Intraloop labeling (L280C, ECL2, n = 3-5) | Overall labeling (L280C, ECL2, n = 3-5) | Intraloop labeling (L370C, ECL3, n = 3-5) | Overall labeling (L370C, ECL3, n = 3-5) | Intraloop labeling (N289C, ECL2, n = 3-5) | Overall labeling (N289C, ECL2, n = 3-5) | Intraloop labeling (N291C, ECL2, n = 3-5) | Overall labeling (N291C, ECL2, n = 3-5) | Intraloop labeling (S293C, ECL2, n = 3-5) | Overall labeling (S293C, ECL2, n = 3-5) | Intraloop labeling (S361C, ECL3, n = 3-5) | Overall labeling (S361C, ECL3, n = 3-5) | Intraloop labeling (V283C, ECL2, n = 3-5) | Overall labeling (V283C, ECL2, n = 3-5) | Intraloop labeling (W286C, ECL2, n = 3-5) | Overall labeling (W286C, ECL2, n = 3-5) | Intraloop labeling (W296C, ECL2, n = 3-5) | Overall labeling [9]
19.3±19.0 percentage: Overall labeling (P362C, ECL3, n = 3-5)
79.1±16.7 percentage: Intraloop labeling (W295C, ECL2, n = 3-5)
15.5±15.2 percentage: Overall labeling (A290C, ECL2, n = 3-5)
54.2±7.8 percentage: Overall labeling [3]
